Several values for one entry are separate records, joined by “and”; a condition that tells them apart may be missing. Identical values can stand only once. Values belong to the compound of their own block, whether it stands above or below them. Square brackets hold non-standard residues; d marks the D form. Peptide text beside a SMILES is read from it. pS = N[C@@H](COP(=O)(O)O)C(=O)O
Assays:
[1] = biological target: T1, mouse Pih1-PIH domain (Mus musculus, UniProt Q9CQJ2); experiment: ITC, phosphopeptide binding to Pih1 PIH domain; settings: 30°C; for Kd: 20 mM Tris pH 7.5, 5 mM NaCl, peptides at 350 μM injected into 30 μM Pih1
T1 construct: We determined the crystal structure of the mouse PIH domain^1–200; His (N); made in house
Method: (§1) Heat of interaction was measured on an ITC200 microcalorimeter (Microcal) under the same buffer conditions (20 mM Tris, pH 7.5, containing 5 mM NaCl). Aliquots of the Tel2 peptides at 350 μM were injected into 30 μM of Pih1 at 30°C. Interactions with Tah1 or Spagh/RPAP3^120–395 were performed in 10 mM Tris pH 7.5 and 5 mM NaCl at 10°C and 30°C. Aliquots of 600 μM Tah1 were injected into 40 μM of yeast Hsp90, 400 μM of SRMEEVD injected into 30 μM Tah1, 301 μM yeast Hsp90 injected into 25 μM yeast Tah1-Pih1 complex, and 400 μM SRMEEVD injected into 30 μM yeast Tah1-Pih1 complex. For Spagh/RPAP3^120–395 experiments, aliquots of 500 μM yeast Hsp90 were injected into 20 μM Spagh/RPAP3^120–395 or 2 mM […] into 80 μM Spagh/RPAP3^120–395 or mutants (N172E, N321E, and N172E-N321E). Heats of dilution were determined by diluting injectant into buffer. Data were fitted using a curve-fitting algorithm (Microcal Origin). ATPase assays were previously described ([Prodromou et al., 1999]).

[2] = biological target: yeast Hsp90; experiment: ITC, binding of Tah1 or Tah1-Pih1 complex to Hsp90 dimer; settings: for Kd: 10 mM Tris pH 7.5, 5 mM NaCl, 600 μM Tah1 into 40 μM yeast Hsp90, or 301 μM yeast Hsp90 into 25 μM yeast Tah1-Pih1 complex; for N (sites) / ΔH / ΔS: same titrations as KD
Method: as §1

T1 sequence (Q9CQJ2 1-200): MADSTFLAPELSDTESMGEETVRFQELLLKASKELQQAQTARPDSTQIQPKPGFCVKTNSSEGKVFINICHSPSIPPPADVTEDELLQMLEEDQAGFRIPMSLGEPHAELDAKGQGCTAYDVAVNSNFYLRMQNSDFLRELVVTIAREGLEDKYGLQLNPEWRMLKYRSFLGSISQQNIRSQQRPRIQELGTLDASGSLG

Compound: CC[C@H](C)[C@H](NC(=O)[C@H](CO)NC(=O)[C@H](CC(=O)O)NC(=O)[C@H](CC(=O)O)NC(=O)[C@H](COP(=O)(O)O)NC(=O)[C@H](CC(=O)O)NC(=O)[C@H](CC(N)=O)NC(=O)[C@H](C)NC(=O)[C@@H](N)CCSC)C(=O)O [Mre11 phosphoserine peptide] (H-MAND[pS]DDSI-OH; N-terminus and C-terminus assumed)
ΔH [1]: -7313 ± 354.7 cal/mol
ΔS [1]: -0.36 cal/mol/deg
N ([1]; fitted): 0.76 ± 0.03 sites

Compound: Tah1: yeast TPR-domain protein, Hsp90 cochaperone of the R2TP complex
Kd [2]: 5.9 µM
N (sites) [2]: 0.68 ± 0.01 sites
ΔH [2]: -8445 ± 164.2 cal/mol
ΔS [2]: -3.95 cal/mol/deg

Compound: CC(C)C[C@H](NC(=O)[C@H](CCC(=O)O)NC(=O)[C@H](CO)NC(=O)[C@H](CC(=O)O)NC(=O)[C@H](COP(=O)(O)O)NC(=O)CNC(=O)[C@@H](N)CCC(N)=O)C(=O)N[C@@H](CC(=O)O)C(=O)N[C@@H](CO)C(=O)N[C@@H](CC(=O)O)C(=O)N[C@@H](CC(=O)O)C(=O)N[C@@H](CCC(=O)O)C(=O)N[C@@H](Cc1ccccc1)C(=O)O [pS486-Tel2]
Kd [1]: 115 µM and > 100 µM

Compound: Tah1-Pih1 complex: pre-assembled full-length yeast Tah1-Pih1 complex
Kd [2]: 4 µM
N (sites) [2]: 0.93 ± 0.04 sites
ΔH [2]: -7595 ± 404 cal/mol
ΔS [2]: -0.367 cal/mol/deg

Compound: CC(C)C[C@H](NC(=O)[C@H](CCC(=O)O)NC(=O)[C@H](COP(=O)(O)O)NC(=O)[C@H](CC(=O)O)NC(=O)[C@H](COP(=O)(O)O)NC(=O)CNC(=O)[C@@H](N)CCC(N)=O)C(=O)N[C@@H](CC(=O)O)C(=O)N[C@@H](CO)C(=O)N[C@@H](CC(=O)O)C(=O)N[C@@H](CC(=O)O)C(=O)N[C@@H](CCC(=O)O)C(=O)N[C@@H](Cc1ccccc1)C(=O)O [pS486, pS488-Tel2]
Kd [1]: 37.9 µM

More lines, now with the values ahead:

Kd [1]: 15.3 µM
Compound: CC(C)C[C@H](NC(=O)[C@H](CCC(=O)O)NC(=O)[C@H](COP(=O)(O)O)NC(=O)[C@H](CC(=O)O)NC(=O)[C@H](CO)NC(=O)CNC(=O)[C@@H](N)CCC(N)=O)C(=O)N[C@@H](CC(=O)O)C(=O)N[C@@H](CO)C(=O)N[C@@H](CC(=O)O)C(=O)N[C@@H](CC(=O)O)C(=O)N[C@@H](CCC(=O)O)C(=O)N[C@@H](Cc1ccccc1)C(=O)O [pS488-Tel2]

Kd [1]: 0.17 µM
Compound: CC(C)C[C@H](NC(=O)[C@H](CCC(=O)O)NC(=O)[C@H](COP(=O)(O)O)NC(=O)[C@H](CC(=O)O)NC(=O)[C@H](CO)NC(=O)CNC(=O)[C@@H](N)CCC(N)=O)C(=O)N[C@@H](CC(=O)O)C(=O)N[C@@H](COP(=O)(O)O)C(=O)N[C@@H](CC(=O)O)C(=O)N[C@@H](CC(=O)O)C(=O)N[C@@H](CCC(=O)O)C(=O)N[C@@H](Cc1ccccc1)C(=O)O [pS488,pS492-Tel2]

Kd [1]: 0.39 µM
Compound: CC(C)C[C@H](NC(=O)[C@H](CCC(=O)O)NC(=O)[C@H](CO)NC(=O)[C@H](CC(=O)O)NC(=O)[C@H](CO)NC(=O)CNC(=O)[C@@H](N)CCC(N)=O)C(=O)N[C@@H](CC(=O)O)C(=O)N[C@@H](COP(=O)(O)O)C(=O)N[C@@H](CC(=O)O)C(=O)N[C@@H](CC(=O)O)C(=O)N[C@@H](CCC(=O)O)C(=O)N[C@@H](Cc1ccccc1)C(=O)O [pS492-Tel2]
